Measurements as given in patent US20090042964A1, “AMINO-5-[SUBSTITUTED-4-(DIFLUOROMETHOXY)PHENYL]-5-PHENYLIMIDAZOLONE COMPOUNDS AS BETA-SECRETASE INHIBITORS” (Wyeth, priority 2007, published 2009).

Target: human BACE1 (Homo sapiens, UniProt P56817)
Test: Fluorescent kinetic assay, evaluation of BACE1 binding affinity of test compounds
Type: biochemical
Conditions: 10 nM human BACE1, 25 μM substrate WABC-6, pH 4.5, room temperature; read-out: BACE1 IC50
Method in brief: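 Kinetic fluorescence assay: enzyme added last to inhibitor and substrate mix, reading started immediately; substrate at 100 μM working dilution (25 μL in 100 μL total). Buffer 66.7 mM Na-acetate pH 4.5 with 0.0667% CHAPS for inhibitor and enzyme dilutions; enzyme stock quantified at 280 nm.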

human BACE1, sequence (P56817 46-501): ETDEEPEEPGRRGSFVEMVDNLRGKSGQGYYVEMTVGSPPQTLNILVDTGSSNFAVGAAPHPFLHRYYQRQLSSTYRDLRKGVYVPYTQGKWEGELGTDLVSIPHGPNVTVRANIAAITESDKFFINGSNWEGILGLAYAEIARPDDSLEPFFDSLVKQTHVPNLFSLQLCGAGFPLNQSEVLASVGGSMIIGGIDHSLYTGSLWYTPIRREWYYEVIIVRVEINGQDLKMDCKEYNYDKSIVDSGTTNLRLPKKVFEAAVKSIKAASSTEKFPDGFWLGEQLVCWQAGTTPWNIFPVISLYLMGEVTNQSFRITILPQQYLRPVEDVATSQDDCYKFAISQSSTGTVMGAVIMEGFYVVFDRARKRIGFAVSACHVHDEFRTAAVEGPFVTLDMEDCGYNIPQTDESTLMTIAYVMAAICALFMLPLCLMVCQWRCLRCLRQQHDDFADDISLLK

Row | IC50 [µM] | SMILES
1 | < 0.1 | CN1C(=O)[C@](c2ccc(F)c(OCC(F)F)c2)(c2ccc(OC(F)F)c(C3CC3)c2)N=C1N [Example 125, (5R)-2-Amino-5-[3-cyclopropyl-4-(difluoromethoxy)phenyl]-5-[3-(2,2-difluoroethoxy)-4-fluorophenyl]-3-methyl-3,5-dihydro-4H-imidazol-4-one]
2 | < 0.1 | Cc1cc(C2(c3cccc(OCCC(F)F)c3)N=C(N)N(C)C2=O)ccc1OC(F)F (stereo not drawn) [Example 126, 2-Amino-5-[4-(difluoromethoxy)-3-methylphenyl]-5-[3-(3,3-difluoropropoxy)phenyl]-3-methyl-3,5-dihydro-4H-imidazol-4-one]
3 | < 0.1 | Cc1cc([C@]2(c3cccc(OCCC(F)F)c3)N=C(N)N(C)C2=O)ccc1OC(F)F [Example 127, (5R)-2-Amino-5-[4-(difluoromethoxy)-3-methylphenyl]-5-[3-(3,3-difluoropropoxy)phenyl]-3-methyl-3,5-dihydro-4H-imidazol-4-one]
4 | 0.11 to 1 | Cc1cc([C@@]2(c3cccc(OCCC(F)F)c3)N=C(N)N(C)C2=O)ccc1OC(F)F [Example 128, (5S)-2-Amino-5-[4-(difluoromethoxy)-3-methylphenyl]-5-[3-(3,3-difluoropropoxy)phenyl]-3-methyl-3,5-dihydro-4H-imidazol-4-one]
5 | < 0.1 | CN1C(=O)C(c2ccc(OC(F)F)c(CCF)c2)(c2ccc(F)c(OCC(F)F)c2)N=C1N (stereo not drawn) [Example 129, 2-Amino-5-[3-(2,2-difluoroethoxy)-4-fluorophenyl]-5-[4-(difluoromethoxy)-3-(2-fluoroethyl)phenyl]-3-methyl-3,5-dihydro-4H-imidazol-4-one]
6 | < 0.1 | Cc1cc(C2(c3ccc(F)c(OCCC(F)F)c3)N=C(N)N(C)C2=O)ccc1OC(F)F (stereo not drawn) [Example 130, 2-Amino-5-[4-(difluoromethoxy)-3-methylphenyl]-5-[3-(3,3-difluoropropoxy)-4-fluorophenyl]-3-methyl-3,5-dihydro-4H-imidazol-4-one]
7 | > 1 | Cc1cc([C@@]2(c3ccc(F)c(OCCC(F)F)c3)N=C(N)N(C)C2=O)ccc1OC(F)F [Example 131, (5S)-2-Amino-5-[4-(difluoromethoxy)-3-methylphenyl]-5-[3-(3,3-difluoropropoxy)-4-fluorophenyl]-3-methyl-3,5-dihydro-4H-imidazol-4-one]
8 | < 0.1 | Cc1cc([C@]2(c3ccc(F)c(OCCC(F)F)c3)N=C(N)N(C)C2=O)ccc1OC(F)F [Example 132, (5R)-2-Amino-5-[4-(difluoromethoxy)-3-methylphenyl]-5-[3-(3,3-difluoropropoxy)-4-fluorophenyl]-3-methyl-3,5-dihydro-4H-imidazol-4-one]
9 | < 0.1 | CN1C(=O)C(c2ccc(F)c(OCCC(F)F)c2)(c2ccc(OC(F)F)c(C3CC3)c2)N=C1N (stereo not drawn) [Example 133, 2-Amino-5-[3-cyclopropyl-4-(difluoromethoxy)phenyl]-5-[3-(3,3-difluoropropoxy)-4-fluorophenyl]-3-methyl-3,5-dihydro-4H-imidazol-4-one]
10 | < 0.1 | CCc1cc(C2(c3ccc(F)c(OCCC(F)F)c3)N=C(N)N(C)C2=O)ccc1OC(F)F (stereo not drawn) [Example 134, 2-Amino-5-[4-(difluoromethoxy)-3-ethylphenyl]-5-[3-(3,3-difluoropropoxy)-4-fluorophenyl]-3-methyl-3,5-dihydro-4H-imidazol-4-one]
11 | > 1 | CCc1cc([C@@]2(c3ccc(F)c(OCCC(F)F)c3)N=C(N)N(C)C2=O)ccc1OC(F)F [Example 135, (5S)-2-Amino-5-[4-(difluoromethoxy)-3-ethylphenyl]-5-[3-(3,3-difluoropropoxy)-4-fluorophenyl]-3-methyl-3,5-dihydro-4H-imidazol-4-one]
12 | < 0.1 | CCc1cc([C@]2(c3ccc(F)c(OCCC(F)F)c3)N=C(N)N(C)C2=O)ccc1OC(F)F [Example 136, (5R)-2-Amino-5-[4-(difluoromethoxy)-3-ethylphenyl]-5-[3-(3,3-difluoropropoxy)-4-fluorophenyl]-3-methyl-3,5-dihydro-4H-imidazol-4-one]
13 | 0.11 to 1 | CN1C(=O)C(c2ccccc2)(c2ccc(OC(F)F)c(CCO)c2)N=C1N (stereo not drawn) [Example 140, 2-Amino-5-[4-(difluoromethoxy)-3-(2-hydroxyethyl)phenyl]-3-methyl-5-phenyl-3,5-dihydro-4H-imidazol-4-one]
14 | < 0.1 | CN1C(=O)C(c2ccccc2)(c2ccc(OC(F)F)c(CCCl)c2)N=C1N (stereo not drawn) [Example 141, 2-Amino-5-[4-(difluoromethoxy)-3-(2-chloroethyl)phenyl]-3-methyl-5-phenyl-3,5-dihydro-4H-imidazol-4-one]
15 | < 0.1 | COCCc1cc(C2(c3ccccc3)N=C(N)N(C)C2=O)ccc1OC(F)F (stereo not drawn) [Example 142, 2-Amino-5-[4-(difluoromethoxy)-3-(2-methoxyethyl)phenyl]-3-methyl-5-phenyl-3,5-dihydro-4H-imidazol-4-one]
16 | > 1 | CN1C(=O)[C@@](c2ccccc2)(c2ccc(OC(F)F)c(CCCl)c2)N=C1N [Example 144, (5R)-2-Amino-5-[3-(2-chloroethyl)-4-(difluoromethoxy)phenyl]-3-methyl-5-phenyl-dihydro-4H-imidazol-4-one]
17 | < 0.1 | CC(C)c1cc(C2(c3ccc(F)c(C#CC4CC4)c3)N=C(N)N(C)C2=O)ccc1OC(F)F (stereo not drawn) [Example 145, 2-Amino-5-[3-(cyclopropylethynyl)-4-fluorophenyl]-5-[4-(difluoromethoxy)-3-isopropylphenyl]-3-methyl-3,5-dihydro-4H-imidazol-4-one]
18 | < 0.1 | CCc1cc(C2(c3ccc(F)c(C#CC4CC4)c3)N=C(N)N(C)C2=O)ccc1OC(F)F (stereo not drawn) [Example 146, 2-Amino-5-[3-(cyclopropylethynyl)-4-fluorophenyl]-5-[4-(difluoromethoxy)-3-ethylphenyl]-3-methyl-3,5-dihydro-4H-imidazol-4-one]
19 | < 0.1 | CCc1cc([C@]2(c3ccc(F)c(C#CC4CC4)c3)N=C(N)N(C)C2=O)ccc1OC(F)F [Example 147, (5R)-2-Amino-5-[3-(cyclopropylethynyl)-4-fluorophenyl]-5-[4-(difluoromethoxy)-3-ethylphenyl]-3-methyl-3,5-dihydro-4H-imidazol-4-one]
20 | 0.11 to 1 | CCc1cc([C@@]2(c3ccc(F)c(C#CC4CC4)c3)N=C(N)N(C)C2=O)ccc1OC(F)F [Example 148, (5S)-2-Amino-5-[3-(cyclopropylethynyl)-4-fluorophenyl]-5-[4-(difluoromethoxy)-3-ethylphenyl]-3-methyl-3,5-dihydro-4H-imidazol-4-one]
21 | 0.11 to 1 | CCc1cc(C2(c3ccc(F)c(C#CCC(C)C)c3)N=C(N)N(C)C2=O)ccc1OC(F)F (stereo not drawn) [Example 149, 2-Amino-5-[4-(difluoromethoxy)-3-ethylphenyl]-5-[4-fluoro-3-(4-methylpent-1-yn-1-yl)phenyl]-3-methyl-3,5-dihydro-4H-imidazol-4-one]
22 | < 0.1 | CCc1cc([C@]2(c3ccc(F)c(C#CCC(C)C)c3)N=C(N)N(C)C2=O)ccc1OC(F)F [Example 150, (5R)-2-Amino-5-[4-(difluoromethoxy)-3-ethylphenyl]-5-[4-fluoro-3-(4-methylpent-1-yn-1-yl)phenyl]-3-methyl-3,5-dihydro-4H-imidazol-4-one]
23 | > 1 | CCc1cc([C@@]2(c3ccc(F)c(C#CCC(C)C)c3)N=C(N)N(C)C2=O)ccc1OC(F)F [Example 151, (5S)-2-Amino-5-[4-(difluoromethoxy)-3-ethylphenyl]-5-[4-fluoro-3-(4-methylpent-1-yn-1-yl)phenyl]-3-methyl-3,5-dihydro-4H-imidazol-4-one]
24 | < 0.1 | CCc1cc(C2(c3ccc(F)c(C#CCOC)c3)N=C(N)N(C)C2=O)ccc1OC(F)F (stereo not drawn) [Example 152, 2-Amino-5-[4-(difluoromethoxy)-3-ethylphenyl]-5-[4-fluoro-3-(3-methoxyprop-1-yn-1-yl)phenyl]-3-methyl-3,5-dihydro-4H-imidazol-4-one]
25 | < 0.1 | CCc1cc(C2(c3ccc(F)c(C#CC(C)C)c3)N=C(N)N(C)C2=O)ccc1OC(F)F (stereo not drawn) [Example 153, 2-Amino-5-[4-(difluoromethoxy)-3-ethylphenyl]-5-[4-fluoro-3-(3-methylbut-1-yn-1-yl)phenyl]-3-methyl-3,5-dihydro-4H-imidazol-4-one]
26 | < 0.1 | CCc1cc([C@]2(c3ccc(F)c(C#CC(C)C)c3)N=C(N)N(C)C2=O)ccc1OC(F)F [Example 154, (5R)-2-Amino-5-[4-(difluoromethoxy)-3-ethylphenyl]-5-[4-fluoro-3-(3-methylbut-1-yn-1-yl)phenyl]-3-methyl-3,5-dihydro-4H-imidazol-4-one]
27 | 0.11 to 1 | CCc1cc([C@@]2(c3ccc(F)c(C#CC(C)C)c3)N=C(N)N(C)C2=O)ccc1OC(F)F [Example 155, (5S)-2-Amino-5-[4-(difluoromethoxy)-3-ethylphenyl]-5-[4-fluoro-3-(3-methylbut-1-yn-1-yl)phenyl]-3-methyl-3,5-dihydro-4H-imidazol-4-one]
28 | < 0.1 | CCc1cc([C@]2(c3ccc(F)c(C#CCOC)c3)N=C(N)N(C)C2=O)ccc1OC(F)F [Example 156, (5R)-2-Amino-5-[4-(difluoromethoxy)-3-ethylphenyl]-5-[4-fluoro-3-(3-methoxyprop-1-yn-1-yl)phenyl]-3-methyl-3,5-dihydro-4H-imidazol-4-one]
29 | 0.11 to 1 | CCc1cc([C@@]2(c3ccc(F)c(C#CCOC)c3)N=C(N)N(C)C2=O)ccc1OC(F)F [Example 157, (5S)-2-Amino-5-[4-(difluoromethoxy)-3-ethylphenyl]-5-[4-fluoro-3-(3-methoxyprop-1-yn-1-yl)phenyl]-3-methyl-3,5-dihydro-4H-imidazol-4-one]

Row | SMILES | IC50 [µM]
30 | CC(C)c1cc(C2(c3ccccc3)N=C(N)N(C)C2=O)ccc1OC(F)F (stereo not drawn) [Example 137, 2-Amino-5-[4-(difluoromethoxy)-3-isopropylphenyl]-3-methyl-5-phenyl-3,5-dihydro-4H-imidazol-4-one] | 0.11 to 1
